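The compound was tested at five concentrations on cells cultured in 96-well plates, with a 48-hour exposure period. The concentration for full growth arrest is given as TGI.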
How the values were obtained:
Assay in all cases: DTP human tumour cell line panel, 48 h
[1] = tested on: 786-0 renal
[2] = tested on: A498 renal
[3] = tested on: A549 NSCLC
[4] = tested on: ACHN renal
[5] = tested on: CAKI-1 renal
[6] = tested on: COLO 205 colon
[7] = tested on: DLD-1 colon
[8] = tested on: DMS 114 small cell lung
[9] = tested on: DMS 273 small cell lung
[10] = tested on: EKVX NSCLC
[11] = tested on: HCC-2998 colon
[12] = tested on: HCT-116 colon
[13] = tested on: HCT-15 colon
[14] = tested on: HOP-18 NSCLC
[15] = tested on: HOP-62 NSCLC
[16] = tested on: HT29 colon
[17] = tested on: IGROV1 ovarian
[18] = tested on: K-562 leukemia
[19] = tested on: KM12 colon
[20] = tested on: KM20L2 colon
[21] = tested on: LOX IMVI melanoma
[22] = tested on: LXFL 529 NSCLC
[23] = tested on: M14 melanoma
[24] = tested on: M19-MEL melanoma
[25] = tested on: MOLT-4 leukemia
[26] = tested on: NCI-H23 lung
[27] = tested on: NCI-H460 lung
[28] = tested on: NCI-H522 lung
[29] = tested on: OVCAR-3 ovarian
[30] = tested on: OVCAR-4 ovarian
[31] = tested on: OVCAR-5 ovarian
[32] = tested on: OVCAR-8 ovarian
[33] = tested on: RPMI-8226 leukemia
[34] = tested on: RXF 393 renal
[35] = tested on: SF-268 CNS
[36] = tested on: SF-295 CNS
[37] = tested on: SF-539 CNS
[38] = tested on: SK-MEL-28 melanoma
[39] = tested on: SK-MEL-5 melanoma
[40] = tested on: SK-OV-3 ovarian
[41] = tested on: SN12C renal
[42] = tested on: SNB-19 CNS
[43] = tested on: SNB-75 CNS
[44] = tested on: SNB-78 CNS
[45] = tested on: SR leukemia
[46] = tested on: SW-620 colon
[47] = tested on: TK-10 renal
[48] = tested on: U251 CNS
[49] = tested on: UACC-257 melanoma
[50] = tested on: UACC-62 melanoma
[51] = tested on: UO-31 renal
[52] = tested on: XF 498 CNS
[53] = tested on: CCRF-CEM leukemia
[54] = tested on: HL-60(TB) leukemia
[55] = tested on: HOP-92 NSCLC
[56] = tested on: MALME-3M melanoma
[57] = tested on: NCI-H226 lung
[58] = tested on: SK-MEL-2 melanoma
[59] = tested on: BT-549 breast
[60] = tested on: DU-145 prostate
[61] = tested on: HS 578T breast
[62] = tested on: MCF7 breast
[63] = tested on: MDA-MB-231 breast
[64] = tested on: MDA-MB-435
[65] = tested on: MDA-N
[66] = tested on: NCI/ADR-RES ovarian
[67] = tested on: PC-3 prostate
[68] = tested on: T-47D breast

Compound: Clc1ccc(C2=Nc3ccccc3SC(c3cccs3)C2)cc1 (stereo unspecified)
- TGI [1]: 29.8 µM
- TGI [2]: 28.1 µM
- TGI [3]: 36 µM
- TGI [4]: 28.7 µM
- TGI [5]: 31.3 µM
- TGI [6]: 31.2 µM
- TGI [7]: 22 µM
- TGI [8]: 31.2 µM
- TGI [9]: 27.1 µM
- TGI [10]: 31.3 µM
- TGI [11]: 30.9 µM
- TGI [12]: 20 µM
- TGI [13]: 27.1 µM
- TGI [14]: 35 µM
- TGI [15]: 39.3 µM
- TGI [16]: 27.8 µM
- TGI [17]: 28 µM
- TGI [18]: 33.7 µM
- TGI [19]: 22.5 µM
- TGI [20]: 30.2 µM
- TGI [21]: 19.9 µM
- TGI [22]: 31.3 µM
- TGI [23]: 30 µM
- TGI [24]: 28.8 µM
- TGI [25]: > 100 µM
- TGI [26]: 27.2 µM
- TGI [27]: 32 µM
- TGI [28]: 32 µM
- TGI [29]: 24 µM
- TGI [30]: 27.2 µM
- TGI [31]: 27.6 µM
- TGI [32]: 30.4 µM
- TGI [33]: 7.26 µM
- TGI [34]: 22.7 µM
- TGI [35]: 30.4 µM
- TGI [36]: 28.2 µM
- TGI [37]: 32 µM
- TGI [38]: 31.8 µM
- TGI [39]: 30.2 µM
- TGI [40]: 30.5 µM
- TGI [41]: 29.3 µM
- TGI [42]: 30.3 µM
- TGI [43]: 34.1 µM
- TGI [44]: 85.2 µM
- TGI [45]: 62.4 µM
- TGI [46]: 25.8 µM
- TGI [47]: 31.1 µM
- TGI [48]: 24.1 µM
- TGI [49]: 29.4 µM
- TGI [50]: 29.1 µM
- TGI [51]: 26.4 µM
- TGI [52]: 29.8 µM

Compound: CN[C@H](C)[C@@H](OC)c1ccccc1
- TGI [1]: > 100 µM
- TGI [3]: > 100 µM
- TGI [4]: > 100 µM
- TGI [5]: > 100 µM
- TGI [53]: > 100 µM
- TGI [6]: > 100 µM
- TGI [7]: > 100 µM
- TGI [8]: > 100 µM
- TGI [9]: > 100 µM
- TGI [10]: > 100 µM
- TGI [11]: > 100 µM
- TGI [12]: > 100 µM
- TGI [13]: > 100 µM
- TGI [54]: > 100 µM
- TGI [14]: > 100 µM
- TGI [15]: > 100 µM
- TGI [55]: > 100 µM
- TGI [16]: > 100 µM
- TGI [17]: > 100 µM
- TGI [18]: > 100 µM
- TGI [19]: > 100 µM
- TGI [20]: > 100 µM
- TGI [21]: > 100 µM
- TGI [22]: > 100 µM
- TGI [23]: > 100 µM
- TGI [24]: > 100 µM
- TGI [56]: > 100 µM
- TGI [25]: > 100 µM
- TGI [57]: > 100 µM
- TGI [27]: > 100 µM
- TGI [29]: > 100 µM
- TGI [30]: > 100 µM
- TGI [31]: > 100 µM
- TGI [32]: > 100 µM
- TGI [33]: > 100 µM
- TGI [34]: > 100 µM
- TGI [36]: > 100 µM
- TGI [58]: > 100 µM
- TGI [38]: > 100 µM
- TGI [39]: > 100 µM
- TGI [40]: > 100 µM
- TGI [41]: > 100 µM
- TGI [42]: > 100 µM
- TGI [43]: > 100 µM
- TGI [44]: > 100 µM
- TGI [46]: > 100 µM
- TGI [47]: > 100 µM
- TGI [48]: > 100 µM
- TGI [49]: > 100 µM
- TGI [50]: > 100 µM
- TGI [51]: > 100 µM
- TGI [52]: > 100 µM

Compound: O=C(/C=C/c1ccccc1F)c1ccc([N+](=O)[O-])cc1
- TGI [1]: > 100 µM
- TGI [3]: > 100 µM
- TGI [4]: > 100 µM
- TGI [5]: 85.4 µM
- TGI [6]: > 100 µM
- TGI [7]: 39.1 µM
- TGI [8]: 44 µM
- TGI [9]: > 100 µM
- TGI [10]: > 100 µM
- TGI [11]: 30.3 µM
- TGI [13]: 43.8 µM
- TGI [14]: > 100 µM
- TGI [15]: > 100 µM
- TGI [55]: 45.5 µM
- TGI [16]: 39.9 µM
- TGI [17]: 63.9 µM
- TGI [18]: 34.8 µM
- TGI [20]: > 100 µM
- TGI [21]: 15.5 µM
- TGI [22]: 40.7 µM
- TGI [23]: 72.6 µM
- TGI [24]: 50.5 µM
- TGI [56]: 70 µM
- TGI [26]: > 100 µM
- TGI [27]: 93 µM
- TGI [29]: 77.9 µM
- TGI [30]: 89.7 µM
- TGI [32]: 73.5 µM
- TGI [34]: 49.8 µM
- TGI [35]: > 100 µM
- TGI [36]: 75.6 µM
- TGI [38]: 43.2 µM
- TGI [40]: > 100 µM
- TGI [41]: > 100 µM
- TGI [43]: 42.6 µM
- TGI [44]: > 100 µM
- TGI [46]: 84 µM
- TGI [47]: > 100 µM
- TGI [48]: 31.1 µM
- TGI [50]: 81.2 µM
- TGI [51]: 39.8 µM
- TGI [52]: 58.9 µM

Compound: Cn1nc(-c2ccccc2)c(C(=O)/C=C/c2ccc(F)cc2)c(N2CCCC2)c1=O
- TGI [1]: 31.2 µM
- TGI [3]: > 100 µM
- TGI [4]: 62.8 µM
- TGI [5]: 61.9 µM
- TGI [53]: 27.8 µM
- TGI [6]: 32.1 µM
- TGI [7]: 39.4 µM
- TGI [8]: 29.1 µM
- TGI [9]: 83.3 µM
- TGI [10]: 52.9 µM
- TGI [12]: 20.5 µM
- TGI [13]: 70 µM
- TGI [54]: 23.2 µM
- TGI [14]: 31.8 µM
- TGI [55]: 36.3 µM
- TGI [16]: 15.3 µM
- TGI [17]: 50.5 µM
- TGI [18]: 38.5 µM
- TGI [20]: 28.3 µM
- TGI [21]: > 100 µM
- TGI [22]: 32.1 µM
- TGI [23]: 37.4 µM
- TGI [24]: 33.8 µM
- TGI [25]: 31.3 µM
- TGI [26]: 32.7 µM
- TGI [27]: 91.7 µM
- TGI [28]: 20.7 µM
- TGI [32]: > 100 µM
- TGI [33]: 30.5 µM
- TGI [34]: 22.1 µM
- TGI [35]: 51 µM
- TGI [37]: 28 µM
- TGI [38]: 32.8 µM
- TGI [39]: 26.9 µM
- TGI [40]: 59.1 µM
- TGI [41]: > 100 µM
- TGI [42]: 48.6 µM
- TGI [46]: 37.1 µM
- TGI [47]: 71.4 µM
- TGI [48]: 29.2 µM
- TGI [50]: 38.4 µM
- TGI [52]: 54.2 µM

Compound: S=C(S)N1CCOCC1
- TGI [1]: > 41.4 µM
- TGI [2]: > 54.4 µM
- TGI [3]: > 100 µM
- TGI [4]: > 100 µM
- TGI [59]: > 100 µM
- TGI [5]: > 34 µM
- TGI [53]: 4.42 µM
- TGI [6]: 5.98 µM
- TGI [7]: 5.22 µM
- TGI [8]: 0.904 µM
- TGI [9]: 21.1 µM
- TGI [60]: > 100 µM
- TGI [10]: > 100 µM
- TGI [11]: > 31.1 µM
- TGI [12]: 24.9 µM
- TGI [13]: > 60.1 µM
- TGI [54]: 14.3 µM
- TGI [14]: > 100 µM
- TGI [15]: > 100 µM
- TGI [55]: > 100 µM
- TGI [61]: > 100 µM
- TGI [16]: 17.1 µM
- TGI [17]: > 100 µM
- TGI [18]: 24.9 µM
- TGI [19]: > 100 µM
- TGI [20]: > 53.2 µM
- TGI [21]: > 78.3 µM
- TGI [22]: > 100 µM
- TGI [23]: 98.4 µM
- TGI [24]: 12.4 µM
- TGI [56]: > 64.2 µM
- TGI [62]: > 100 µM
- TGI [63]: > 100 µM
- TGI [64]: > 100 µM
- TGI [65]: > 100 µM
- TGI [25]: 9.89 µM
- TGI [57]: > 100 µM
- TGI [26]: > 34 µM
- TGI [27]: > 29.6 µM
- TGI [28]: 3.98 µM
- TGI [66]: > 100 µM
- TGI [29]: 15.8 µM
- TGI [30]: > 34.5 µM
- TGI [31]: > 100 µM
- TGI [32]: > 100 µM
- TGI [67]: > 100 µM
- TGI [33]: 42.6 µM
- TGI [34]: 12.7 µM
- TGI [35]: > 100 µM
- TGI [36]: > 100 µM
- TGI [37]: > 83.6 µM
- TGI [58]: > 100 µM
- TGI [38]: 82.2 µM
- TGI [39]: > 63.9 µM
- TGI [40]: > 100 µM
- TGI [41]: > 100 µM
- TGI [42]: > 100 µM
- TGI [43]: > 29.8 µM
- TGI [44]: > 100 µM
- TGI [45]: 14.8 µM
- TGI [46]: 16.5 µM
- TGI [68]: > 100 µM
- TGI [47]: > 100 µM
- TGI [48]: 25.8 µM
- TGI [49]: > 100 µM
- TGI [50]: 15 µM
- TGI [51]: > 100 µM
- TGI [52]: 16 µM

From PubChem BioAssay (NCI)
